Source: ChEMBL document CHEMBL1140266, “(2R)-2-methylchromane-2-carboxylic acids: discovery of selective PPARalpha agonists as hypolipidemic agents” (Bioorg Med Chem Lett, 2005)

Experiments:
[1] = molecular target: T1, Peroxisome proliferator-activated receptor alpha (Homo sapiens, UniProt Q07869); format: functional, cell-based, COS-1
T1 sequence (Q07869 whole entry): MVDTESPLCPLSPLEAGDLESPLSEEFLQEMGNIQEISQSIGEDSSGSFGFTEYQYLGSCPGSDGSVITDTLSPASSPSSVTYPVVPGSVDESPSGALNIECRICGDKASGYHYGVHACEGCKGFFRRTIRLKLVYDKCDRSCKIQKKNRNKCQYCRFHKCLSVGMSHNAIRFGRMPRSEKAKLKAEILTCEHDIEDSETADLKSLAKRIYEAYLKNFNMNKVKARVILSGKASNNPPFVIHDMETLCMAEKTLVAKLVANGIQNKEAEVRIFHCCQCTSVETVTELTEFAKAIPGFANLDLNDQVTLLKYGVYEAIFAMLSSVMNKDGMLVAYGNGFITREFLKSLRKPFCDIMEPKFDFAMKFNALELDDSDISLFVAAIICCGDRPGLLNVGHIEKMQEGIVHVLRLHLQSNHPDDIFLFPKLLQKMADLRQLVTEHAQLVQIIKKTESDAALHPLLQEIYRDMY
Description: Agonist activity against human PPARalpha in COS-1 cell Gal4 assay

[2] = molecular target: T1, Peroxisome proliferator-activated receptor alpha
Description: In vitro binding affinity against human PPARalpha

[3] = molecular target: T2, Peroxisome proliferator-activated receptor delta (Homo sapiens, UniProt Q03181)
T2 sequence (Q03181 whole entry): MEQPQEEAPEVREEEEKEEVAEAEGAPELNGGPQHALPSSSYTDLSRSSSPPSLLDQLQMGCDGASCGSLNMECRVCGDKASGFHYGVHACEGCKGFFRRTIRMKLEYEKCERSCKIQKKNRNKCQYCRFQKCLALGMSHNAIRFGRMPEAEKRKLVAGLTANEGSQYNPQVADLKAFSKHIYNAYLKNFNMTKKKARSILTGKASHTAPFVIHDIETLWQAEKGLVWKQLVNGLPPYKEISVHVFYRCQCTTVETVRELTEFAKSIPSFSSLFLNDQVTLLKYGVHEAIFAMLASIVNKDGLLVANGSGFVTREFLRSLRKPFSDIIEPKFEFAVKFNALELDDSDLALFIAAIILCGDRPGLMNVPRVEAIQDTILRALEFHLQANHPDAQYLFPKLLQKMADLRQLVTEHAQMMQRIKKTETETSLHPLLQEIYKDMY
Description: In vitro binding affinity against human PPARdelta

in vivo [4] = conditions: Sprague-Dawley, rat, po, 2 mg/kg
in vivo [5] = conditions: Sprague-Dawley, rat, iv, 0.5 mg/kg
Description: Hail-life period determined against Sprague-Dawley Rat at 0.5 mg/kg after intravenous administration; (Number of rats = 3)

in vivo [6] = conditions: Sprague-Dawley, rat, iv, 0.5 mg/kg; remark: listed apart in the source
Cricetinae gen. sp. [7] = format: functional, Cricetulus griseus; conditions: at 10 mg/kg
Description: In vivo efficacy at 10 mpk against Hamster for cholesterol lowering effect after oral dosing; Number of animals= 9 (vehicle 0.5% methylcellulose)

Cricetinae gen. sp. [8] = format: functional; conditions: at 10 mg/kg
Description: In vivo efficacy at 10 mpk against Hamster for triglceride lowering effect after oral dosing; Number of animals= 9 (vehicle 0.5% methylcellulose)

[9] = molecular target: T1, Peroxisome proliferator-activated receptor alpha; format: functional, cell-based; conditions: cos-1
Description: Agonist activity against human PPARalpha in COS-1 cell Gal4 assay; NA= Not active (less than 20% activation at 10 uM)

Cricetinae gen. sp. [10] = format: functional, Cricetulus griseus; conditions: at 10 mg/kg; remark: listed apart in the source
Description: In vivo efficacy at 10 mpk against Hamster for triglyceride lowering effect after oral dosing; Number of animals= 9 (vehicle 0.5% methylcellulose)

in vivo [11] = conditions: cercopithecidae, iv, 0.5 mg/kg
in vivo [12] = conditions: beagle, dog, po, 2 mg/kg
Description: Bioavailability determined against adult Beagle dog at 2 mg/kg after peroral administration

in vivo [13] = conditions: rhesus monkey, po, 2 mg/kg
Description: Bioavailability determined against adult Rhesus monkey at 2 mg/kg after peroral administration

in vivo [14] = conditions: beagle, dog, iv, 0.5 mg/kg
Description: Hail-life period determined against adult Beagle dog at 0.5 mg/kg after intravenous administration; (Number of rats = 3)

in vivo [15] = conditions: cercopithecidae, iv, 0.5 mg/kg; remark: listed apart in the source
Description: Hail-life period determined against adult Rhesus monkey at 0.5 mg/kg after intravenous administration; (Number of rats = 3)

in vivo [16] = conditions: beagle, dog, iv, 0.5 mg/kg; remark: listed apart in the source
Cricetinae gen. sp. [17] = format: functional; conditions: at 100 mg/kg
Cricetinae gen. sp. [18] = format: functional; conditions: at 100 mg/kg; remark: listed apart in the source

| SMILES | EC50 [1] | IC50 [2] | IC50 [3] | further results |
| --- | --- | --- | --- | --- |
| CC(C)c1ccc(OCCCOc2ccc3c(c2)O[C@@](C)(C(=O)O)CC3)c(Cl)c1 | 23 nM | 48 nM | > 15000 nM | bioavailability (in vivo [4]): 54%; half-life (in vivo [5]): 1.3 h; clearance (in vivo [6]): 6.8 mL/min/kg; Efficacy (Cricetinae gen. sp. [7]): -40%; Efficacy (Cricetinae gen. sp. [8]): -18% |
| C[C@]1(C(=O)O)CCc2ccc(OCCCOc3ccc(C4CCCC4)cc3Cl)cc2O1 | 9 nM | 40 nM | 10500 nM | bioavailability (in vivo [4]): 54%; half-life (in vivo [5]): 1.3 h; clearance (in vivo [6]): 6.8 mL/min/kg; Efficacy (Cricetinae gen. sp. [7]): -40%; Efficacy (Cricetinae gen. sp. [8]): -21% |
| CC(C)(C)c1ccc(OCCCOc2ccc3c(c2)O[C@@](C)(C(=O)O)CC3)c(Cl)c1 | 80 nM | 230 nM | > 15000 nM | – |
| CC[C@]1(C(=O)O)CCc2ccc(OCCCOc3ccc(OC(F)(F)F)cc3Cl)cc2O1 | 6 nM | 37 nM | 1900 nM | – |
| CC[C@]1(C(=O)O)CCc2ccc(OCCCOc3ccc(F)cc3Cl)cc2O1 | – | > 15000 nM | > 15000 nM | EC50 [9]: Not Active |
| C[C@]1(C(=O)O)CCc2ccc(OCCCOc3ccc(C4CCC5(CC4)CC5)cc3Cl)cc2O1 | 420 nM | 1600 nM | > 50000 nM | – |
| CC(C)Cc1ccc(OCCCOc2ccc3c(c2)O[C@@](C)(C(=O)O)CC3)c(Cl)c1 | 6 nM | 16 nM | 7600 nM | bioavailability (in vivo [4]): 87%; half-life (in vivo [5]): 2.9 h; clearance (in vivo [6]): 2.6 mL/min/kg; Efficacy (Cricetinae gen. sp. [7]): -50%; Efficacy (Cricetinae gen. sp. [8]): -29% |
| C[C@]1(C(=O)O)CCc2ccc(OCCCOc3ccc(OCC4CC4)cc3Cl)cc2O1 | 240 nM | 600 nM | > 15000 nM | bioavailability (in vivo [4]): 76%; Efficacy (Cricetinae gen. sp. [10]): -13%; half-life (in vivo [5]): 2.9 h; clearance (in vivo [6]): 5.1 mL/min/kg; Efficacy (Cricetinae gen. sp. [7]): -39% |
| CC[C@]1(C(=O)O)CCc2ccc(OCCCOc3ccc(C(C)(C)C)cc3Cl)cc2O1 | 28 nM | 180 nM | > 50000 nM | – |
| C[C@]1(C(=O)O)CCc2ccc(OCCCOc3ccc(OCC(F)(F)F)cc3Cl)cc2O1 | 40 nM | 110 nM | > 15000 nM | clearance (in vivo [11]): 5.6 mL/min/kg; bioavailability (in vivo [12]): 100%; bioavailability (in vivo [4]): 60%; Efficacy (Cricetinae gen. sp. [10]): -54%; bioavailability (in vivo [13]): 88%; half-life (in vivo [14]): 6.2 h; half-life (in vivo [5]): 2.7 h; clearance (in vivo [6]): 5.1 mL/min/kg; half-life (in vivo [15]): 2.5 h; clearance (in vivo [16]): 5.8 mL/min/kg; Efficacy (Cricetinae gen. sp. [7]): -60% |
| CC(C)OC(=O)C(C)(C)Oc1ccc(C(=O)c2ccc(Cl)cc2)cc1 [FENOFIBRATE] | – | – | – | Efficacy (Cricetinae gen. sp. [17]): -43%; Efficacy (Cricetinae gen. sp. [18]): -23% |
| C[C@]1(C(=O)O)CCc2ccc(OCCCOc3ccc(OC(F)(F)F)cc3Cl)cc2O1 | 20 nM | 57 nM | 490 nM | – |
| COc1ccc(OCCCOc2ccc3c(c2)O[C@@](C)(C(=O)O)CC3)c(Cl)c1 | – | 3900 nM | > 50000 nM | – |
| CC[C@]1(C(=O)O)CCc2ccc(OCCCOc3ccc(Cl)cc3Cl)cc2O1 | 130 nM | 400 nM | 4100 nM | – |
| CC[C@]1(C(=O)O)CCc2ccc(OCCCOc3ccc(CC(C)C)cc3Cl)cc2O1 | 7 nM | 29 nM | > 50000 nM | – |

The next lines start with results.

| EC50 [1] | IC50 [2] | IC50 [3] | SMILES | further results |
| --- | --- | --- | --- | --- |
| 220 nM | 1380 nM | > 15000 nM | CCOc1ccc(OCCCOc2ccc3c(c2)O[C@@](C)(C(=O)O)CC3)c(Cl)c1 | – |
| 2 nM | 28 nM | > 15000 nM | C[C@]1(C(=O)O)CCc2ccc(OCCCOc3ccc(C4CCCCC4)cc3Cl)cc2O1 | – |
| 140 nM | 390 nM | > 15000 nM | C[C@]1(C(=O)O)CCc2ccc(OCCCOc3ccc(OCC4CCC4)cc3Cl)cc2O1 | – |
| – | > 15000 nM | > 50000 nM | C[C@]1(C(=O)O)CCc2ccc(OCCCOc3ccc(F)cc3Cl)cc2O1 | – |
| 120 nM | 810 nM | 6900 nM | O=C(O)C1CCc2ccc(OCCCOc3ccc(OCC(F)(F)F)cc3Cl)cc2O1 (stereo unspecified) | – |
| 1000 nM | 1700 nM | > 50000 nM | CC1(C)CCC(c2ccc(OCCCOc3ccc4c(c3)O[C@@](C)(C(=O)O)CC4)c(Cl)c2)CC1 | – |
| 4 nM | 7 nM | 14000 nM | CCC(C)(C)c1ccc(OCCCOc2ccc3c(c2)O[C@@](C)(C(=O)O)CC3)c(Cl)c1 | – |
| 24 nM | 38 nM | > 15000 nM | CC[C@]1(C(=O)O)CCc2ccc(OCCCOc3ccc(C(C)C)cc3Cl)cc2O1 | – |
| 40 nM | 240 nM | 7400 nM | CC(C)Oc1ccc(OCCCOc2ccc3c(c2)O[C@@](C)(C(=O)O)CC3)c(Cl)c1 | – |
| 4 nM | 66 nM | > 50000 nM | CC[C@]1(C(=O)O)CCc2ccc(OCCCOc3ccc(OCC(F)(F)F)cc3Cl)cc2O1 | – |
| 61 nM | 140 nM | 5000 nM | C[C@]1(C(=O)O)CCc2ccc(OCCCOc3ccc(Oc4ccc(F)cc4)cc3Cl)cc2O1 | – |
| – | > 50000 nM | > 50000 nM | C[C@@]1(C(=O)O)CCc2ccc(OCCCOc3ccc(OCC(F)(F)F)cc3Cl)cc2O1 | EC50 [9]: Not Active |
| 5 nM | 15 nM | > 50000 nM | CC[C@]1(C(=O)O)CCc2ccc(OCCCOc3ccc(C4CCCCC4)cc3Cl)cc2O1 | bioavailability (in vivo [4]): 57%; half-life (in vivo [5]): 1.2 h; clearance (in vivo [6]): 8.2 mL/min/kg |
| 36 nM | 90 nM | 2300 nM | CC[C@]1(C(=O)O)CCc2ccc(OCCCOc3ccc(C(F)(F)F)cc3Cl)cc2O1 | – |
| 300 nM | 610 nM | > 50000 nM | CC[C@]1(C(=O)O)CCc2ccc(OCCCOc3ccc(C4CCC5(CC4)CC5)cc3Cl)cc2O1 | bioavailability (in vivo [4]): 37%; half-life (in vivo [5]): 4.5 h; clearance (in vivo [6]): 0.62 mL/min/kg |
| 22 nM | 710 nM | > 50000 nM | CC[C@]1(C(=O)O)CCc2ccc(OCCCOc3ccc(C4CCOCC4)cc3Cl)cc2O1 | bioavailability (in vivo [4]): 77%; half-life (in vivo [5]): 0.9 h; clearance (in vivo [6]): 15.6 mL/min/kg |
| 700 nM | 1700 nM | > 50000 nM | CC[C@]1(C(=O)O)CCc2ccc(OCCCOc3ccc(C4CCC(C)(C)CC4)cc3Cl)cc2O1 | bioavailability (in vivo [4]): 95%; half-life (in vivo [5]): 6.8 h; clearance (in vivo [6]): 2.7 mL/min/kg |
